Laboratory results: patent publication US20050059585A1, “Methionine aminopeptidase-2 inhibitors and methods of use thereof” (Praecis Pharmaceuticals Inc., priority 2000, published 2005)

Columns and labels:
Format in all cases: cell-based
[1] = test system: IGR-OV1; assay: tumor cell line panel, SRB growth assay; conditions: Homo sapiens, IGROV-1; IGR-OV1, Ovarian, 48 hours
Experimental: (§1) The compound of example 5 was also evaluated against a panel of cancer cell lines (Alley, M.C. et al. […] Cancer Research 48: 589-601; Grever, M. R., et al. (1992) Seminars in Oncology, Vol. 19, No. 6, pp 622-638; Boyd, M. R., and Paull, K. D. (1995) Drug Development Research 34: 91-109). The human tumor cell lines of the cancer screening panel were grown in RPMI 1640 medium containing 5% fetal bovine serum and 2 mM L-glutamine. Cells were inoculated into 96 well microtiter plates in 100 μL at plating densities ranging from 5,000 to 40,000 cells/well depending on the doubling time of individual cell lines. After cell inoculation, the microtiter plates were incubated at 37° C., 5 % CO2, 95 % air and 100 % relative humidity for 24 hours prior to addition of experimental drugs.
(§2) After the 24 hour incubation period, two plates of each cell line were fixed in situ with TCA, to represent a measurement of the cell population for each cell line at the time of drug addition (Tz). Experimental drugs were solubilized in dimethyl sulfoxide at 400-fold the desired final maximum test concentration and stored frozen prior to use. At the time of drug addition, an aliquot of frozen concentrate was thawed and diluted to twice the desired final maximum test concentration with complete medium containing 50 μg/ml gentamicin. Additional four, 10-fold or ½ log serial dilutions were made to provide a total of five drug concentrations plus control. Aliquots of 100 μl of these different drug dilutions were added to the appropriate microtiter wells already containing 100 μl of medium, resulting in the required final drug concentrations.
(§3) Following drug addition, the plates were incubated for an additional 48 hours at 37° C., 5 % CO2, 95 % air, and 100 % relative humidity. For adherent cells, the assay was terminated by the addition of cold TCA. Cells were fixed in situ by the gentle addition of 50 μl of cold 50 % (w/v) TCA (final concentration, 10% TCA) and incubated for 60 minutes at 4° C. The supernatant was discarded, and the plates were washed five times with tap water and air dried. Sulforhodamine B (SRB) solution (100 μl) at 0.4 % (w/v) in 1 % acetic acid were added to each well, and plates were incubated for 10 minutes at room temperature. After staining, unbound dye was removed by washing five times with 1 % acetic acid and the plates were air dried. Bound stain was subsequently solubilized with 10 mM trizma base, and the absorbance was read on an automated plate reader at a wavelength of 515 nm. For suspension of the cells, the methodology used was the same except that the assay was terminated by fixing settled cells at the bottom of the wells by gently adding 50 μl of 80 % TCA (final concentration, 16% TCA). Using the seven absorbance measurements [time zero, (Tz), control growth, (C), and test growth in the presence of drug at the five concentration levels (Ti)], the percentage growth was calculated at each of the drug concentrations levels.
(§4) Percentage growth inhibition was calculated as: [(Ti−Tz)/(C−Tz)]×100 for concentrations for which Ti>/=Tz [(Ti−Tz)/Tz]×100 for concentrations for which Ti<Tz.
(§5) Growth inhibition of 50% (GI50) was calculated from [(Ti−Tz)/(C−Tz)]×100=50, which is the drug concentration resulting in a 50% reduction in the net protein increase (as measured by SRB staining) in control cells during the drug incubation. The G150 was calculated for each of the cell lines if the level of activity is reached; however, if the effect was not reached or is exceeded, the value for that parameter is expressed as greater or less than the maximum (10^−4 M) or minimum (10^−8 M) concentration tested.

[2] = test system: MALME-3M; assay: tumor cell line panel, SRB growth assay; conditions: Homo sapiens, Melanoma, 48 hours
Experimental: as §1, §2, §3, §4, §5

[3] = test system: NCI-H322M; assay: tumor cell line panel, SRB growth assay; conditions: Homo sapiens, Non-Small Cell Lung, 48 hours
Experimental: as §1, §2, §3, §4, §5

[4] = test system: OVCAR-4; assay: tumor cell line panel, SRB growth assay; conditions: Homo sapiens; OVCAR-4, Ovarian, 48 hours
Experimental: as §1, §2, §3, §4, §5

[5] = test system: OVCAR-5; assay: tumor cell line panel, SRB growth assay; conditions: Homo sapiens; OVCAR-5, Ovarian, 48 hours
Experimental: as §1, §2, §3, §4, §5

[6] = test system: OVCAR-8; assay: tumor cell line panel, SRB growth assay; conditions: Homo sapiens; OVCAR-8, Ovarian, 48 hours
Experimental: as §1, §2, §3, §4, §5

[7] = test system: SK-OV-3; assay: tumor cell line panel, SRB growth assay; conditions: Homo sapiens; SK-OV-3, Ovarian, 48 hours
Experimental: as §1, §2, §3, §4, §5

[8] = test system: SNB-19; assay: tumor cell line panel, SRB growth assay; conditions: Homo sapiens; SNB-19, CNS, 48 hours
Experimental: as §1, §2, §3, §4, §5

[9] = test system: UACC-62; assay: tumor cell line panel, SRB growth assay; conditions: Homo sapiens; UACC-62, Melanoma, 48 hours
Experimental: as §1, §2, §3, §4, §5

[10] = test system: ST486; assay: Inhibition of GC derived B cell lymphoma lines in culture

## CO[C@@H]1[C@H](OC(=O)N[C@@H](C(N)=O)C(C)C)CC[C@]2(CO2)[C@H]1[C@@]1(C)O[C@@H]1CC=C(C)C [Example 5, (1-Carbamoyl-2-methyl-propyl)-carbamic acid-(3R, 4S, 5S, 6R )-5-methoxy-4-[(2R, 3R)-2-methyl-3-(3-methyl-but-2-enyl)-oxiranyl]-1-oxa-spiro[2.5]oct-6-yl ester]
[1]
  GI50: < 10 nM
[2]
  GI50: 53.1 nM
[3]
  GI50: 46.8 nM
[4]
  GI50: 36600 nM
[5]
  GI50: 13.5 nM
[6]
  GI50: 18400 nM
[7]
  GI50: 7370 nM
[8]
  GI50: < 10 nM
[9]
  GI50: < 10 nM
[10]; Homo sapiens, ST486, read-out: Growth Inhibition Relative to Vehicle Control, GI50%
  GI50: 0.22 nM
[10]; ST486, BL, 0.01-100 nM, five or six days
  Growth Inhibition Relative to Vehicle Control, Maximum Inhibition: 53%
